Assay results: patent US20050032863A1, “Method of treating or preventing central nervous system disorders with compounds having selectivity for the alpha 3 subunit of the benzodiazepine receptor” (priority 2003, published 2005)

Tests used:
[1] = test system: 5-HT release in the brain; settings: literature reports; cited from earlier work
[2] = test system: female Wistar rats, MK-801-induced stereotypies, hyperactivity and ataxia; assay: MK-801-induced behaviour, rat model of psychosis (Example 1); type: in vivo; settings: 0.5 mg/kg i.p. 1 h prior to test; MK-801 0.2 mg/kg i.p.; p<0.001
Procedure: (§1) The behaviour induced by the NMDA antagonist MK-801 is generally accepted as a rat model of psychosis. MK-801 induces stereotypies, hyperactivity and ataxia in rats after intraperitoneal administration.
Locomotor activity of the rats is recorded by the MotiTest Apparatus (TSE, Bad Homburg, Germany). The test area consisted of a squared arena ([…] with protective plexiglass walls (20 cm of height) where rats could freely move. Horizontal movements were recorded by 32 infrared photocells arranged along the bottom of each wall of the arena. Vertical movements (rearings) were recorded by a horizontal row of 32 infrared photocells 12 cm above the floor. The following parameters are measured by the computer program “ActiMot” (TSE, Bad Homburg, Germany): • active time [s] and total distance travelled [m]
(§2) Stereotypies, divided into stereotyped sniffing and other stereotypies, and ataxia are scored by the experimenter every five minutes for one hour (12 intervals) according to the method described by Andiné et al. (1999). The scores of the 12 intervals are added for each parameter.
The day of experiment the female rats are placed in the laboratory and receive the test compound, the reference substance or vehicle at the appropriate time prior to test. MK-801 0.2 mg/kg is intraperitoneally administered 10 minutes prior to test.
(§3) At the beginning of the test the rats are placed in the centre of the squared arena of the MotiTest apparatus. Behaviour of the rats is recorded for one hour. After each run animals are removed and the boxes thoroughly cleaned and dried.

[3] = test system: female Wistar rats, MK-801-induced stereotypies, hyperactivity and ataxia; assay: MK-801-induced psychosis-related behaviour and reversibility by flumazenil (Example 7); type: in vivo, rat
Procedure: Apart from the haloperidol rats which received haloperidol 30 minutes and MK-801 10 minutes prior to the test, the other test groups received haloperidol, ELB139 or vehicle 60 minutes prior to test, saline or flumazenil 20 minutes prior to test and MK-801 10 minutes prior to test.
as §1
Locomotor activity of the rats is recorded by the MotiTest Apparatus (TSE, Bad Homburg, Germany). The test area consisted of a squared arena (45×45 cm) with protective plexiglass walls (20 cm of height) where rats could freely move. Horizontal movements were recorded by 32 infrared photocells arranged along the bottom of each wall of the arena. Vertical movements (rearings) were recorded by a horizontal row of 32 infrared photocells 12 cm above the floor. The following parameters were measured by the computer program “ActiMot” (TSE, Bad Homburg, Germany): • 1. active time [s] • 2. total distance travelled [m]
as §2
The day of experiment the female rats are placed in the laboratory and receive the test compound, the reference substance or vehicle at the appropriate time prior to test. […]
as §3

[4] = molecular target: alpha 1 containing receptors (UniProt P14867+P18508); settings: cited from earlier work
[5] = molecular target: alpha 5 containing receptors (UniProt P18508+P31644); settings: cited from earlier work
alpha 2 receptors = alpha 2 receptors (UniProt P18508+P47869); settings: cited from earlier work
alpha 3 receptors = alpha 3 receptors (UniProt P18508+P34903); settings: cited from earlier work
[6] = molecular target: T1, recombinant rat α1β2γ2 GABAA receptors (Rattus norvegicus, UniProt P62813); assay: Whole-cell patch-clamp, modulation of GABA (EC20)-induced currents in transfected HEK 293 cells, α1β2γ2; type: cell-based
T1 construct: expressed in transfected cells; host or cells: HEK 293
Procedure: (§4) For electrophysiological recording HEK-293 cells were passaged and replated on 12-mm glass coverslips located in 9.6-cm plastic dishes filled with 10 ml of Minimum Essential Medium (MEM, Gibco) supplemented with 158 mg/l sodium bicarbonate, 2 mM glutamine (Gibco), 100 U/ml penicillin-streptomycin (Gibco), and 10% foetal calf serum (Gibco). Cultures were maintained at 37° C. in a humidified […]/5% CO2 atmosphere for 2-3 days.
(§5) Transfection with recombinant rat GABAA receptors was carried out as described in detail (Korpi and Lüddens, 1993, Lüddens and Korpi, 1995b). Briefly, HEK 293 cells were transfected in triple combinations using the phosphate precipitation method with rat GABAA receptor cDNAs in eukaryotic expression vectors (Pritchett, 1990) for the α, β and γ subunits. For optimal receptor expression, final concentrations (μg vector DNA per 9.6 cm tissue culture plate) were: α1, 2; α2 4.8; α3, 1.2; α4, 10; α5, 0.8; β2, 0.4; and γ2S, 0.3. The γ2S variant is abbreviated γ2 in the remainder of the text. To identify transfected cells all subunit combinations were co-transfected with 1 μg per plate of pNI-EGFP.
(§6) Two days after transfection single coverslips containing HEK 293 cells were placed in a recording chamber mounted on the movable stage of a fluorescence microscope (Olympus IX70) and perfused with a defined saline solution containing (in mM): 130 NaCl, 5.4 KCl, 2 CaCl2, 2 MgSO4, 10 glucose, 5 sucrose, and 10 HEPES (free acid), pH adjusted to 7.35 with about 35 mM NaOH. Transfected cells were identified by their green fluorescence due to the expression of the pNI-EGFP vector and ligand-mediated membrane currents of these cells were studied in the whole-cell configuration of the patch-clamp technique (Hamil et al., 1981). Patch-clamp pipettes were pulled from hard borosilicate capillary glass (0.5 mm ID, 1.5 mm OD, Vitrex, Science Products GmbH, Hofheim, Germany) using a horizontal puller (Sutter Instruments, CA, Model P-97) in a multi-stage process.
(§7) Seal resistances >1 GΩ were routinely obtained by applying gentle suction to the pipettes. Membrane rupture was monitored electrically as an increase in capacity. Pipette capacitance, membrane capacitance, and series resistance were electronically compensated to achieve minimal capacitative transients. A series resistance compensation of >60% was regularly used.
(§8) In all cells recorded the presence of the γ2 subunit in the heteropentamere was monitored by the application of 1 μM zolpidem plus the EC20 of GABA before testing the experimental drugs.
(§9) Responses of the cells were recorded by a patch-clamp amplifier (EPC-8, HEKA-Electronic, Lambrecht, Germany) in conjunction with a standard personal computer and the pClamp 8.1 software package (Axon Instruments, Foster City, Calif.). The standard holding-potential for the cells was −40 mV. Whole cell currents were low-pass filtered by an eight-pole Bessel filter at 5 or 3 kHz before being digitised by a Digidata 1322A interface (Axon Instruments, Foster City, Calif.) and recorded by the computer at a sampling rate of at least […].
(§10) Efficacy, potency, and GABAA receptor a subunit specificity of the new compound ELB139 was tested with the whole cell configuration of the patch-clamp technique by applying increasing drug concentration together with GABA of the approximate EC20 on green fluorescing cells. BZ binding site specificity of the new compound was tested on the same cells in an identical experimental setting with additionally applying 10 μM Ro15-1788.

[7] = molecular target: T2, recombinant rat α2β2γ2 GABAA receptors (Rattus norvegicus, UniProt P23576); assay: Whole-cell patch-clamp, modulation of GABA (EC20)-induced currents in transfected HEK 293 cells, α2β2γ2; type: cell-based
T2 construct: expressed in transfected cells; host or cells: HEK 293
Procedure: as §4, §5, §6, §7, §8, §9, §10

[8] = molecular target: T3, recombinant rat α3β2γ2 GABAA receptors (Rattus norvegicus, UniProt P20236); assay: Whole-cell patch-clamp, modulation of GABA (EC20)-induced currents in transfected HEK 293 cells, α3β2γ2; type: cell-based
T3 construct: expressed in transfected cells; host or cells: HEK 293
Procedure: as §4, §5, §6, §7, §8, §9, §10

[9] = molecular target: T4, recombinant rat α4β2γ2 GABAA receptors (Rattus norvegicus, UniProt P28471); assay: Whole-cell patch-clamp, modulation of GABA (EC20)-induced currents in transfected HEK 293 cells, α4β2γ2; type: cell-based; settings: α4-containing receptors; diazepam up to 1 μM, ELB139 at all concentrations tested
T4 construct: expressed in transfected cells; host or cells: HEK 293
Procedure: as §4, §5
as §6, with “Patch-clamp pipettes were pulled from hard borosilicate capillary glass (0.5 mm ID, 1.5 mm OD, Vitrex, Science Products GmbH, Hofheim, Germany) using a horizontal puller (Sutter Instruments, CA, Model P-97) in a multi-stage process.” left out
Seal resistances >1 GΩ were routinely obtained by applying gentle suction to the pipettes. Membrane rupture was monitored electrically as an increase in capacity. […]
In all cells recorded the presence of the γ2 subunit in the heteropentamere was monitored by the application of 1 μM zolpidem plus the EC20 of GABA before testing the experimental drugs. […]

[10] = molecular target: T5, recombinant rat α5β2γ2 GABAA receptors (Rattus norvegicus, UniProt P19969); assay: Whole-cell patch-clamp, modulation of GABA (EC20)-induced currents in transfected HEK 293 cells, α5β2γ2; type: cell-based
T5 construct: expressed in transfected cells; host or cells: HEK 293
Procedure: as §4, §5, §6, §7, §8, §9, §10

male Wistar rats = assay: Rat forced swim test; type: in vivo; settings: 10 and 30 mg/kg p.o., 23, 5 and 1 h prior to testing
Procedure: All animals were treated with verum or vehicle three times: shortly after the habituation session (23 h), 5 and 1 h prior to testing. All drugs were administered orally with an application volume of 1 ml/kg.
The animals were tested in a glass tank (23×30 cm, height 40 cm) filled to a depth of 28 cm with water at 22° C. (the animals could not touch the bottom). The glass tank was illuminated indirectly and was surrounded by dark brown shading walls (distance from the tank 20 cm) to prevent the view on the experimenter. The experiments were performed between 14:00 and 17:00 hours and the method was in general performed as described (Porsolt et al., 1979; Lucki, 1997).
On the first experimental day, rats were gently placed in the water for a 15 min period of habituation. On removal from the water, they were placed in a standard plexiglass box, the floor covered with paper towels, under an infrared heater for 30 min to dry. The next day, they were once more placed gently in the glass tank and observed for 5 min. The behaviour of the animals was video-taped.
Following the experiment the video tapes were analysed manually and the duration of the following behaviours was recorded: Immobility: floating and making only those movements necessary to keep the nose above the water. […] Climbing: when rats strongly move their forepaws in and out of the water, usually against the walls.

[11] = haloperidol 0.5 mg/kg i.p. + flumazenil 5 mg/kg i.p.
[12] = haloperidol 0.5 mg/kg i.p., MK-801 0.1 mg/kg i.p.

T2 sequence (P23576 29-451): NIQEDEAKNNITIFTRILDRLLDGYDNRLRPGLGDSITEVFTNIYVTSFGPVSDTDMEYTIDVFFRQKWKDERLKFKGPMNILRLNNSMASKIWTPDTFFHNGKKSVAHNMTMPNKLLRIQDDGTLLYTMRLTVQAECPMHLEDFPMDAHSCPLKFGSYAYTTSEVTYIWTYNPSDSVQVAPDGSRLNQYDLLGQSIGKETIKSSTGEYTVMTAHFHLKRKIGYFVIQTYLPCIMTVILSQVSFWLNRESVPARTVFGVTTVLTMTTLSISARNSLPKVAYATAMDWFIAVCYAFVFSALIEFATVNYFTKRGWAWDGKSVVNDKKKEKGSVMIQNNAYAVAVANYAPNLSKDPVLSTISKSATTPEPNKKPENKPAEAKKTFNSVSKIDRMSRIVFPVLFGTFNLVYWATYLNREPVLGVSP
T5 sequence (P19969 32-464 limits assumed): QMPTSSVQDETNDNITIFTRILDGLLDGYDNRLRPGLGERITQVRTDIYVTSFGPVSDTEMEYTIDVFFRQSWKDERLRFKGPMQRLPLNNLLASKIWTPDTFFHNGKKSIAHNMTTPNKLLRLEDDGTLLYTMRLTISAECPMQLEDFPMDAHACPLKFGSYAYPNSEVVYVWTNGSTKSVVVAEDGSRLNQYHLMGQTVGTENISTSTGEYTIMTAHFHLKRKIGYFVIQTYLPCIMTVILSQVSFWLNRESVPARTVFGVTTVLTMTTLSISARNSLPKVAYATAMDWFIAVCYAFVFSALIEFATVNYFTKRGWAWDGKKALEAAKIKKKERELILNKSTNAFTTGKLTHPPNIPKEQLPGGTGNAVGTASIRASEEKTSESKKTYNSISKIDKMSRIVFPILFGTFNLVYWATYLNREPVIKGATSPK
T1 sequence (P62813 28-455): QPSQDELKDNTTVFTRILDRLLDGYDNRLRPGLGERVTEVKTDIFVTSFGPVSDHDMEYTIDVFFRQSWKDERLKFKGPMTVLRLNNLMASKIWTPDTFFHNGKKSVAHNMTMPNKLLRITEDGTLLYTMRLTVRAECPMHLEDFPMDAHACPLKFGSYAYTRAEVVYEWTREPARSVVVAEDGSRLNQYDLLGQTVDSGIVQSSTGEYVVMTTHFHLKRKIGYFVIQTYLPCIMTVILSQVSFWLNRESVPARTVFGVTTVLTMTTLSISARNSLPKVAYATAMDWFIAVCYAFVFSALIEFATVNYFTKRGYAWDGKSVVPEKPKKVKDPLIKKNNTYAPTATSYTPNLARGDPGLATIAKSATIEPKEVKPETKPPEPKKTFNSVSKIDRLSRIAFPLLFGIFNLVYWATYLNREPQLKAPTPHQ
T3 sequence (P20236 29-493): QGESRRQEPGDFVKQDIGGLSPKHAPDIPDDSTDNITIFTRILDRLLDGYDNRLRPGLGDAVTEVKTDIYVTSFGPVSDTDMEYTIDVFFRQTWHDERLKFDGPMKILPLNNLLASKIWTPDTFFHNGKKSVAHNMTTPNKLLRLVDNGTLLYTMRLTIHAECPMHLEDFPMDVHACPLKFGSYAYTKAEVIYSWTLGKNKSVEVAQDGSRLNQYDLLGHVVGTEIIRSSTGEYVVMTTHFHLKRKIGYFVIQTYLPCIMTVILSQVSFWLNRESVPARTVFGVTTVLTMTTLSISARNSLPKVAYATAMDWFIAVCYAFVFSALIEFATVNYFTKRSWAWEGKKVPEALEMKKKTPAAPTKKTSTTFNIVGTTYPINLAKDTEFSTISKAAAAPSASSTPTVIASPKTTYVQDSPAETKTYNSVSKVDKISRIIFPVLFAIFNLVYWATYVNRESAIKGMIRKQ
alpha 5 containing receptors, sequence (P31644 32-462): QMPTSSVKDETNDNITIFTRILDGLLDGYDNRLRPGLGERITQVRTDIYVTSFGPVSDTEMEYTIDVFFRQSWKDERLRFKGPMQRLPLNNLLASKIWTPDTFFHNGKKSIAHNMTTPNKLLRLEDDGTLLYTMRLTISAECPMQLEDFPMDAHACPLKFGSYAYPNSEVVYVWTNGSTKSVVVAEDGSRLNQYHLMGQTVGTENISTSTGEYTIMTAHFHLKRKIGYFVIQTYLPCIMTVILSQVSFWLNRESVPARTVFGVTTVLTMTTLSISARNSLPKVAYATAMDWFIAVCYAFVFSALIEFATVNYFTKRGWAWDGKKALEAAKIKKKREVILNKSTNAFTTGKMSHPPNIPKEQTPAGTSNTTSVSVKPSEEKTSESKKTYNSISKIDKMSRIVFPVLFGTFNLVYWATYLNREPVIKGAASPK
alpha 5 containing receptors, sequence (P63079 26-473 partner): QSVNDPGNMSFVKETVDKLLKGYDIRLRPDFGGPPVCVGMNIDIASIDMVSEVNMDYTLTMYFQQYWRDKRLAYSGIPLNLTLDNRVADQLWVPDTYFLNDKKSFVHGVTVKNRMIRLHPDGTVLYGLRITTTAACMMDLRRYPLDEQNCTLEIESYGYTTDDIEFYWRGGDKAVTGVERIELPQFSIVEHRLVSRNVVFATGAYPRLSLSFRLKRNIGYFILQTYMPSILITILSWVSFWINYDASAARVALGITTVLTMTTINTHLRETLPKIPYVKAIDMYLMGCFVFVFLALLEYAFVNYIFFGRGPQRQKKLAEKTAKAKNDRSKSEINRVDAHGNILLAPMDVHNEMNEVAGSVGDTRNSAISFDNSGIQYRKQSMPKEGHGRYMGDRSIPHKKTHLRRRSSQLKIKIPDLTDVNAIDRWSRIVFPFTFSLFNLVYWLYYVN
alpha 5 containing receptors, sequence (P18508 39-466): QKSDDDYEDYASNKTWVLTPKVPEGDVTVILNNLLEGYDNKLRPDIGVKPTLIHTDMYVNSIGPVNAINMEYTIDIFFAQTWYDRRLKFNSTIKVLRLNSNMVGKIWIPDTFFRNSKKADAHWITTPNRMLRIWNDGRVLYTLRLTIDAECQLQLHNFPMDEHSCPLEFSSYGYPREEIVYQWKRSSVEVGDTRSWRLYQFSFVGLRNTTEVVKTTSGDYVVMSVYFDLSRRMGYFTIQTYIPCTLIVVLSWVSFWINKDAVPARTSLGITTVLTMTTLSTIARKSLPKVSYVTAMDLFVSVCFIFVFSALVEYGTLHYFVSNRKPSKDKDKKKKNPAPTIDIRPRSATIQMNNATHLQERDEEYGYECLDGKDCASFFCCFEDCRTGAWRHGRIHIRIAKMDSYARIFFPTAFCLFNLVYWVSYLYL
alpha 1 containing receptors, sequence (P14867 28-456): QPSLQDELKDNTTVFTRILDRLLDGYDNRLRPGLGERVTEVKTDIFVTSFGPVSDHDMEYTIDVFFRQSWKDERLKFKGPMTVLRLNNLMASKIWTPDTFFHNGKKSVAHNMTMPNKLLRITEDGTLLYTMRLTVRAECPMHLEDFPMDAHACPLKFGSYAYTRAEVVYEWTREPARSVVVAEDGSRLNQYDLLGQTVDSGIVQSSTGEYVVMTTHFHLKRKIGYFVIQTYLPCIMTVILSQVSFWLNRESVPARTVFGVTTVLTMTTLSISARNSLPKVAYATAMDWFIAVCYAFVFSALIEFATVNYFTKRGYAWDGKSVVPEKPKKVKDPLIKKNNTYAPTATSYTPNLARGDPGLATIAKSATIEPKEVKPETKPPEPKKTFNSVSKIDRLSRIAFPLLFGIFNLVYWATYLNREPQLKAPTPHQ
alpha 1 containing receptors, sequence (P63138 25-474 partner limits assumed): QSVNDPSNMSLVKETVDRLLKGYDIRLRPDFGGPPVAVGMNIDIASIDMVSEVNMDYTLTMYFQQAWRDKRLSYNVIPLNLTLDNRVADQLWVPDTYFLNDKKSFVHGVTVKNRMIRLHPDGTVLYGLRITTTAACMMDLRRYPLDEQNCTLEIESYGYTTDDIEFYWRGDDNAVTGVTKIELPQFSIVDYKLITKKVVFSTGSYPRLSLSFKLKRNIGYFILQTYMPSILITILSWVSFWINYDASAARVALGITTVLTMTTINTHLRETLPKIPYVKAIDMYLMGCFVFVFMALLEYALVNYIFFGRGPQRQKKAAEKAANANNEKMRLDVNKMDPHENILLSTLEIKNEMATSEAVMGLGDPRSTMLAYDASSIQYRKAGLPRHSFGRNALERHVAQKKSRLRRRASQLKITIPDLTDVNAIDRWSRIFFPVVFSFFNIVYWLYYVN
alpha 1 containing receptors, sequence (P18508 39-466): as the sequence (P18508 39-466) above
alpha 3 receptors, sequence (P34903 29-492): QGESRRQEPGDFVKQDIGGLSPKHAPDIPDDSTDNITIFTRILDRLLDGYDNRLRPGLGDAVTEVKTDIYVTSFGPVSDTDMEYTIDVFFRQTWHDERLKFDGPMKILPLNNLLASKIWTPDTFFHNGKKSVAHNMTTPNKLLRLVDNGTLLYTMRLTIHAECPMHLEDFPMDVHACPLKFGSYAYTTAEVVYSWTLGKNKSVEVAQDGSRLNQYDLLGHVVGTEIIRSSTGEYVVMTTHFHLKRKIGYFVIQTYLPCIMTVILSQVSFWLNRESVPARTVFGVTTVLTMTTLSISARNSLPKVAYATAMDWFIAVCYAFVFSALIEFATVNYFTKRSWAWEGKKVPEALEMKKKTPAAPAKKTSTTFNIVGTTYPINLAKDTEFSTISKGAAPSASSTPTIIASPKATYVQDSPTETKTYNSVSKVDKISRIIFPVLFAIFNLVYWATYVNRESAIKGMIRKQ
alpha 3 receptors, sequence (P63138 25-474 partner limits assumed): as the sequence (P63138 25-474 partner limits assumed) above
alpha 3 receptors, sequence (P18508 39-466): as the sequence (P18508 39-466) above
alpha 2 receptors, sequence (P47869 29-451): as the sequence (P23576 29-451) above, with S88L, P174A, G330A counted along it
alpha 2 receptors, sequence (P63138 25-474 partner limits assumed): as the sequence (P63138 25-474 partner limits assumed) above
alpha 2 receptors, sequence (P18508 39-466): as the sequence (P18508 39-466) above

NCC1(CC(=O)O)CCCCC1 [gabapentin]
effect on 5-HT release / extracellular 5-HT in the brain [1]: decrease

O=C(CCCN1CCC(O)(c2ccc(Cl)cc2)CC1)c1ccc(F)cc1 [Haloperidol, 4-(4-[4-chlorophenyl]-4-hydroxy-1-piperidinyl)-1-(4-fluorophenyl)-1-nutanone, reference compound]
all symptoms induced by MK-801 [2]: significantly reduced all symptoms
MK-801-induced ataxia, combination with flumazenil [3, 11]: significantly reversed
effects on activity, distance, sniffing and other stereotypies when flumazenil is added [3, 11]: not affected
MK-801-induced ataxia ([3]; haloperidol 0.5 mg/kg i.p. alone, MK-801 0.1 mg/kg i.p.): only marginally reduced
MK-801-increased activity [3, 12]: significantly reversed
MK-801-increased distance travelled [3, 12]: significantly reversed
MK-801-induced other stereotypies [3, 12]: slightly reduced
MK-801-induced sniffing (stereotypies) [3, 12]: significantly reversed

O=C1NC(=O)C(c2ccccc2)(c2ccccc2)N1 [phenytoin]
effect on 5-HT release / extracellular 5-HT in the brain [1]: decrease

NC(=O)N1c2ccccc2C=Cc2ccccc21 [Carbamazepine]
effect on 5-HT release / extracellular 5-HT in the brain [1]: increase

Cn1c2ccc(F)cc2c2c(C(=O)N3CCCC3)cn(-c3ccccc3)c(=O)c21 [SL651498]
partial agonistic activity [4]: 40-50%
partial agonistic activity [5]: 40-50%
partial agonistic activity (alpha 2 receptors): 100%
activity (alpha 3 receptors): 70%

CN1C(=O)CN=C(c2ccccc2)c2cc(Cl)ccc21 [Diazepam, reference compound]
maximal positive modulation of GABA-induced current ([6]; α1-containing receptors, maximum at 30 μM (ELB139), at 1 μM (diazepam)): 2.2±0.9 fold
Potentiation* (Diazepam) ([6]; α1β2γ2, with GABA EC20, graphically determined): 2.2 ± 0.9
concentration at which positive current modulations were first measurable ([7]; α2 containing receptors): below 0.1 μM
maximal agonism, potentiation of GABA-induced current ([7]; α2β2γ2, at 1 μM diazepam): 1.8 fold
Potentiation* (Diazepam) ([7]; α2β2γ2, with GABA EC20, graphically determined): 1.8 ± 0.6
concentrations at which positive current modulation was observable ([8]; α3-containing receptors): below 10 nM
Potentiation* (Diazepam) ([8]; α3β2γ2, with GABA EC20, graphically determined): 1.8 ± 0.11
modulation of GABA-induced currents (in words) [9]: no significant modulation
concentration at which the current was potentiated [10]: 10 nM
maximal positive modulation of GABA-induced current ([10]; maximum at 30 μM (ELB139), at 1 μM (diazepam)): 2±0.05 fold
Potentiation* (Diazepam) ([10]; with GABA EC20, graphically determined): 2 ± 0.05

CNCCC(Oc1ccc(C(F)(F)F)cc1)c1ccccc1 (stereo not drawn) [fluoxetine, N-methyl-γ-[4-(trifluoromethyl)phenoxy] benzenepropanamine, reference compound]
climbing behaviour (male Wistar rats): not changed
swimming time (male Wistar rats): increased
time spent immobile (male Wistar rats): reduced

CCCC(CCC)C(=O)O [Valproate]
effect on 5-HT release / extracellular 5-HT in the brain [1]: enhances
